Measured values from paper PMC8614999, “A Comparative Analysis of Punicalagin Interaction with PDIA1 and PDIA3 by Biochemical and Computational Approaches” (Biomedicines, 2021).

How the values were obtained:
PDIA1 [1] = molecular target: T1, PDIA1 (Homo sapiens, UniProt P07237); test: Isothermal titration calorimetry, PDIA1; assay type: binding; settings: ITC, PDIA1 reduced form, 25 °C
T1 construct: The pOLR130 plasmid encoding mature human PDIA1 with an N-terminal His6x-tag; His6 (N); made in house; host or cells: E. coli BL21
T1 sequence (P07237 18-508): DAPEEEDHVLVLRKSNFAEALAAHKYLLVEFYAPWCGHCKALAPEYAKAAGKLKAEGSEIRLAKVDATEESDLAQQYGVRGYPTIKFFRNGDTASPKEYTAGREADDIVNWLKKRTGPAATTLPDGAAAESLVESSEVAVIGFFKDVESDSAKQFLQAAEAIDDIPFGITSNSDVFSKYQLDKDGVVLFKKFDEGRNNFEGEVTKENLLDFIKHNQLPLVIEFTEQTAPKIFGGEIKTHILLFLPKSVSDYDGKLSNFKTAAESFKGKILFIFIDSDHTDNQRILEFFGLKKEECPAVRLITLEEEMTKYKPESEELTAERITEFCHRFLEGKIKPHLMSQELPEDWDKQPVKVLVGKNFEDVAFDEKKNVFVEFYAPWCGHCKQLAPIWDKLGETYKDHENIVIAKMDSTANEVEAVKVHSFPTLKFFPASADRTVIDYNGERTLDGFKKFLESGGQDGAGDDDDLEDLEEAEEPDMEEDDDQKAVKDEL
Experimental: (§1) Punicalagin interaction with PDIA3 and PDIA1 was investigated using isothermal titration calorimetry (ITC) with a MicroCal ITC200 (Malvern Instruments, Malvern, UK). […] Protein solution was loaded in the sample cell (0.2 mL), and the syringe was filled with punicalagin 250 µM dissolved in the same buffer. A total of 20 ligand aliquots (the first aliquot of 0.4 µL in 0.8 s and the other 19 aliquots of 2 µL in 4 s) were gradually added to the sample cell at intervals of 200 s each other to allow baseline recovery. The syringe stirring speed was set at 800 rpm. Protein and punicalagin solutions were thoroughly degassed on the MicroCal’s Thermovac machine before loading to avoid air bubble formation during the titration. Data analyses were performed by Origin software version 8.0 (OriginLab, Northampton, MA, USA). The heat of dilution for the ligand was determined in parallel, and this value was subtracted from the integrated data before curve fitting. The integration of the area under each heat burst curve was determined. All injection heats as a function of the molar ratio were plotted and analyzed using the one set of sites model to provide the dissociation constants.

PDIA1 [2] = molecular target: T1, PDIA1; test: Disulfide reductase activity with di-E-GSSG, PDIA1; assay type: biochemical; settings: PDIA1, di-E-GSSG substrate
Experimental: (§2) PDIAs disulfide reductase activity was monitored by using di-eosin glutathione disulfide (di-E-GSSG) as a fluorogenic substrate of PDIAs. Di-E-GSSG was synthesized by the reaction of eosin isothiocyanate with oxidized glutathione (GSSG) according to the method of Raturi and Mutus with some modifications. Protein activity was evaluated by monitoring the emission fluorescence increase (λem = 545 nm and λex = 525 nm), and the effect of punicalagin (concentration ranging from 0.2 to 50 µM) was tested. Inhibition constants were extrapolated by GraphPad Prism 8.0 software (GraphPad Software, San Diego, CA, USA), plotting the obtained data as logarithm dose-response curves.
(§3) Punicalagin effects have also been studied on the enzymatic activity of PDIA3 and PDIA1. It is well known that both proteins catalyze oxidoreductase and isomerase reactions involving thiol groups and disulfide bonds. PDIs’ reductase activity was evaluated using di-E-GSSG as fluorogenic substrate and was calculated as the initial velocity in fluorescence increased due to the reduction in the fluorogenic substrate. […] For comparison purposes, the punicalagin inhibitory effect was extended to PDIA1. Results were analyzed as logarithmic dose response, and the half-maximal inhibitory concentrations (IC50) were evaluated (Figure 4).

PDIA3 [3] = molecular target: T2, PDIA3 (Homo sapiens, UniProt P30101); parameters: method as in PMID 29425676; settings: PDIA3 reductase activity, non-competitive inhibitor; cited from earlier work
T2 construct: Mature human recombinant PDIA3 protein was expressed and purified; made in house
T2 sequence (P30101 25-505): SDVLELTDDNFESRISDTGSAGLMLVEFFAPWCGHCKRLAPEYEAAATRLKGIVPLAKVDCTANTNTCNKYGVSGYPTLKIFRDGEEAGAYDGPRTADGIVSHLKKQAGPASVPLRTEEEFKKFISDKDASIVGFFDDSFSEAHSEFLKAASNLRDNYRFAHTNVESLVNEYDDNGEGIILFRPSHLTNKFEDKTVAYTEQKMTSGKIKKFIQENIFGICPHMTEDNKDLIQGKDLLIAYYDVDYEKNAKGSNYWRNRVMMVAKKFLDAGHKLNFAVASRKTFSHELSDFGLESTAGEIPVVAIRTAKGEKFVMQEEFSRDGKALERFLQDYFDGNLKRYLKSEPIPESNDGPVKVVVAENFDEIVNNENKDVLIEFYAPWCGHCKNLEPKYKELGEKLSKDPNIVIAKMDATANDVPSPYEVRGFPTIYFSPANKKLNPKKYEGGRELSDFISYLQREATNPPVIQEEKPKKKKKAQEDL

PDIA3 [4] = molecular target: T2, PDIA3; test: Tryptophan fluorescence quenching titration, PDIA3; assay type: binding; settings: for Stern–Volmer constant KSV: 0.1 × 10^−6 M protein; for Stern–Volmer constant KSV / Kd: pH 7.4, 25 °C; for Kd: fluorescence quenching
Experimental: (§4) Protein-ligand interactions were evaluated according to the fluorescence quenching titration method using a SPEX-FluoroMax spectrofluorometer (Horiba Scientific, Piscataway, NJ, USA). Emission spectra were recorded from 300 to 400 nm with an excitation wavelength set at 290 nm. The emission slit width was fixed to provide a 2 nm bandpass for all experiments. Scan speed was set at 120 nm min^−1. A total of 50 µM PDIA1 and PDIA3 stock solutions were reduced by adding DTT 5 mM. […] The titrations were performed by stepwise additions, at 5 min time intervals, of punicalagin solution from 0 to 4 µM (punicalagin 0.2 mM in PBS pH 7.4 freshly prepared from a 5 mM stock solution in water). Blank spectra for each experiment (no protein added) were performed in parallel for background determination. The emission spectrum of the protein was recorded three times, and the average reading values were then used for quenching analyses as already described.
(§5) Quenching of intrinsic tryptophan fluorescence at 338 nm has been analyzed by Stern–Volmer equation (Fo/F = 1 + KSV[L]), where F and F0 are the fluorescence intensity, respectively with or without ligand (L), and KSV is the Stern–Volmer constant value. Based on obtained results, punicalagin is able to quench the fluorescence of both proteins with a Stern–Volmer constant always greater than 1.0 × 10^4 M^−1 (Figure 2B and Table 1). […] In order to further characterize the binding process, data were analyzed using the equation described by Bi et al. and the reiterative calculation process described by Sun et al., providing an estimation of the Kd values (Table 1). Punicalagin binds both PDIAs in the micro-molar order of magnitude, showing a slightly greater affinity toward PDIA3, which tryptophan residues appear more quenchable upon punicalagin binding.

PDIA3 [5] = molecular target: T2, PDIA3; test: Differential scanning calorimetry thermal denaturation, PDIA3; assay type: binding; settings: reduced PDIA3 5 µM, punicalagin 25 µM
Experimental: (§6) Protein stability in solution was assayed by differential scanning calorimetry (DSC) with a Microcal VP-DSC (Microcal, Northampton, MA, USA) testing both proteins. […] The reference cell was filled with protein-free buffer. A heating rate of 60 °C h^−1 was set, and the measurement cell worked under an excess pressure of 0.2 kPa to avoid air bubble formation during the heating. The heat absorption during the denaturation process was measured by subtracting the instrumental baseline from the sample trace and normalizing for protein concentration. To test the effect of the ligand on protein stability, analysis was also performed on both proteins in the presence of punicalagin (25 µM final concentration). The melting points (Tm, temperature at which excess heat capacity reaches a maximum) were directly observable from the thermogram. Nevertheless, data deconvolution using the Origin software provided by MicroCal was necessary to obtain Tm values.

PDIA3 [6] = molecular target: T2, PDIA3; test: Disulfide reductase activity with di-E-GSSG, PDIA3; assay type: biochemical; settings: PDIA3, di-E-GSSG substrate
Experimental: as §2, §3

[7] = parameters: method as in printed; settings: background statement, ref not given; cited from earlier work
PDIA1 [8] = molecular target: T1, PDIA1; test: Tryptophan fluorescence quenching titration, PDIA1; assay type: binding; settings: for Stern–Volmer constant KSV: 0.1 × 10^−6 M protein; for Stern–Volmer constant KSV / Kd: pH 7.4, 25 °C; for Kd: fluorescence quenching
Experimental: as §4, §5

PDIA1 [9] = molecular target: T1, PDIA1; test: Differential scanning calorimetry thermal denaturation, PDIA1; assay type: binding; settings: reduced PDIA1 5 µM, punicalagin 25 µM
Experimental: as §6

PDIA3 [10] = molecular target: T2, PDIA3; test: Isothermal titration calorimetry, PDIA3; assay type: binding; settings: ITC, PDIA3 reduced form, 25 °C
Experimental: as §1

O=C1O[C@H]2[C@@H]3OC(=O)c4cc(O)c(O)c(O)c4-c4c(O)c(O)c5oc(=O)c6c(c(O)c(O)c7oc(=O)c4c5c76)-c4c(cc(O)c(O)c4O)C(=O)OC[C@H]3OC(O)[C@@H]2OC(=O)c2cc(O)c(O)c(O)c2-c2c1cc(O)c(O)c2O (mixture of isomers) [punicalagin]
Kd (PDIA1 [1]): 1 ± 0.2 µM
TΔS (PDIA1 [1]): 5.6 ± 0.5 kcal/mol
ΔH (PDIA1 [1]): -2.7 ± 0.4 kcal/mol
IC50 (PDIA1 [2]): 6.1 ± 0.6 µM
Ki (PDIA3 [3]): 0.39 µM
Quenching constant Kq (PDIA3 [4]; PDIA3, KSV = Kqτ, τ in the order of 1.0 × 10^−8 s): greater than 1.0 × 10^10 M^1s^−1
Stern–Volmer constant (bound stated in text) (PDIA3 [4]; PDIA3, both proteins always greater): greater than 1.0 × 10^4 M^−1
Stern–Volmer constant KSV (PDIA3 [4]; PDIA3 not reduced form): 240.4 ± 3.6 M^−1 × 10^3
Stern–Volmer constant KSV (PDIA3 [4]; PDIA3 reduced form): 157.1 ± 1.9 M^−1 × 10^3
Kd (PDIA3 [4]; PDIA3 not reduced form): 3.9 µM
Kd (PDIA3 [4]; PDIA3 reduced form): 10 µM
Tm of first endothermic peak in presence of punicalagin (PDIA3 [5]; protein alone 44.9 °C): 40.4 °C
Tm of second endothermic peak in presence of punicalagin (PDIA3 [5]; protein alone 53.9 °C): 51.6 °C
IC50 (PDIA3 [6]): 1.5 ± 0.2 µM
solubility in water [7]: soluble in water
Quenching constant Kq (PDIA1 [8]; PDIA1, KSV = Kqτ, τ in the order of 1.0 × 10^−8 s): greater than 1.0 × 10^10 M^1s^−1
Stern–Volmer constant (bound stated in text) (PDIA1 [8]; PDIA1, both proteins always greater): greater than 1.0 × 10^4 M^−1
Stern–Volmer constant KSV (PDIA1 [8]; PDIA1 not reduced form): 183.2 ± 2.7 M^−1 × 10^3
Stern–Volmer constant KSV (PDIA1 [8]; PDIA1 reduced form): 97.9 ± 2.1 M^−1 × 10^3
Kd (PDIA1 [8]; PDIA1 not reduced form): 4.9 µM
Kd (PDIA1 [8]; PDIA1 reduced form): 11.9 µM
Tm of first endothermic peak in presence of punicalagin (PDIA1 [9]; protein alone 46.0 °C): 42 °C
Tm of second endothermic peak in presence of punicalagin (PDIA1 [9]; protein alone 61.0 °C): 60 °C
Kd (PDIA3 [10]): 1.2 ± 0.3 µM
TΔS (PDIA3 [10]): 6.8 ± 0.4 kcal/mol
ΔH (PDIA3 [10]): -1.1 ± 0.2 kcal/mol
